These results are taken from patent publication US20140336182A1, “Aurora Kinase Modulators and Method of Use” (Amgen Inc., priority 2013, published 2014).

Where only a bound is given, the exact number is not on record here.

The first assay has as its system HeLa cells. Kind of assay: HeLa cell 24 hr ploidy assay (DNA content). Type of assay: cell-based. As to conditions: HeLa cells, 4N ploidy, average, read-out: 24h_4NPloidy EC50_IP (uM Avg). In a few lines: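 DNA content measured by Hoechst 33342 nuclear staining (0.5 ug/ml, 45 min RT) and high-content imaging of fixed HeLa cells after 24 h compound exposure in 0.25% DMSO. Fractions of 4N and >4N cells fitted to dose curves giving EC50 IP, EC50 transit, Max and Min.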
For the compound `COc1cnc2c(Sc3ccc(Nc4nnc(N5CCN6CCCC[C@@H]6C5)c5ccccc45)cc3)ccnc2c1` [compound 584], the EC50 worked out at 0.005 µM.

The same assay, now with this note: Homo sapiens, HeLa, 4N ploidy, average, read-out: 24h_4NPloidy EC50_IP (uM Avg).
Turning to `COc1cnc2c(Oc3ccc(Nc4nnc(-c5cccc(COC(C)=O)n5)c5ccccc45)cc3)ccnc2c1` [compound 132], the EC50 turned out to be 0.323 µM.

On to `CN1CCN(c2nnc(Nc3ccc(Oc4ccnc5cc(C#N)ccc45)cc3)c3ccccc23)CC1` [compound 94], for which the EC50 was 0.09 µM.

With `COc1cnc2c(Nc3ccc(Nc4nnc(-c5ccccc5)c5ccccc45)cc3)ccnc2c1` [Example 40, N′-(7-methoxy-1,5-naphthyridin-4-yl)-N4-(4-phenylphthalazin-1-yl)benzene-1,4-diamine], the EC50 came out at 0.07 µM.

Regarding `Cc1csc(-c2nnc(Nc3ccc(Oc4ccnc5cc(C(N)=O)ccc45)cc3)c3ccccc23)n1` [compound 95], the EC50 was determined as 0.167 µM.

On to `COc1cc2ncnc(Oc3ccc(Nc4nnc(-c5cc(C)cs5)c5ccccc45)cc3)c2cc1OC` [compound 153], for which the EC50 was determined as 0.001 µM.

For `COc1cc2ncnc(Oc3ccc(Nc4nnc(-c5ccccc5)c5ccccc45)cc3)c2cc1OC` [compound 98, N-(4-((6,7-bis(methyloxy)-4-quinazolinyl)oxy)phenyl)-4-phenyl-1-phthalazinamine], the EC50 was 0.019 µM.

Regarding `COc1cccc(-c2nnc(Nc3ccc(Oc4ccnc5cc(C#N)ccc45)cc3)c3ccccc23)n1` [compound 102], the EC50 stood at 0.028 µM.

On to `COc1cc2nccc(Oc3ccc(Nc4nnc(-c5cccc(C)n5)c5ccccc45)cc3)c2cc1OC` [compound 150], for which the EC50 amounted to 0.017 µM.

Take `COc1cnc2c(Oc3ccc(Nc4nnc(-c5ccc(C)cc5)c5ccccc45)cc3)ccnc2c1` [compound 81]: the EC50 is 0.008 µM.

For `COc1cc2nccc(Oc3ccc(Nc4nnc(-c5cc(C)ccn5)c5ccccc45)cc3)c2cn1` [compound 121], the EC50 came out at 0.132 µM.

Turning to `COc1cnc2c(Oc3ccc(Nc4nnc(-c5cccc(CO)n5)c5ccccc45)cc3)ccnc2c1` [compound 114], the EC50 is 0.39 µM.

Still in this assay, the particulars now being: Homo sapiens, HeLa, HeLa cells, 4N ploidy, average, read-out: 24h_4NPloidy EC50_IP (uM Avg).
As for `COc1cnc2c(Oc3ccc(Nc4nnc(N5CCN6CCCCC[C@@H]6C5)c5ccccc45)cc3)ccnc2c1` [compound 604], the EC50 was determined as 0.087 µM.

Take `COc1cnc2c(Oc3ccc(Nc4nnc(-c5csc6ccccc56)c5ccccc45)cc3)ccnc2c1` [compound 169]: the EC50 came to 0.027 µM.

Take `CCc1ccc(-c2nnc(Nc3ccc(Oc4ccnc5cc(OC)cnc45)cc3)c3ccccc23)s1` [compound 229]: the EC50 came out at 0.026 µM.

`CCc1cc(-c2ccc(C)cc2)nnc1Nc1ccc(Nc2ccnc3cc(C#N)ccc23)cc1` [compound 596]: the EC50 turned out to be 0.084 µM.

`c1ccc(-c2nnc(Nc3ccc(Oc4ccnc5cc(-c6cn[nH]c6)ccc45)cc3)c3ccccc23)cc1` [compound 417]: the EC50 is 0.001 µM.

With `Clc1ccc(-c2nnc(Nc3ccc(Sc4ccnc5cc[nH]c45)cc3)c3ccccc23)cc1` [compound 463], the EC50 is 0.01 µM.

`COc1cnc2c(Oc3ccc(Nc4nnc(-c5ccc(F)c(F)c5)c5ccccc45)cc3)ccnc2c1` [compound 214]: the EC50 amounted to 0.033 µM.

Consider `COc1cc2nccc(Oc3ccc(Nc4nnc(-c5ccccc5)c5ccccc45)cc3)c2cc1C(N)=O` [compound 225], for which the EC50 was found to be 0.004 µM.

With `COCCOc1cc2nccc(Oc3ccc(Nc4nnc(-c5ccccc5)c5ccccc45)cc3)c2cc1OC` [Example 393, N-(4-(6-Methoxy-7-(2-methoxyethoxy)quinolin-4-yloxy)phenyl)-4-phenylphthalazin-1-amine], the EC50 came to 0.001 µM.

As for `Clc1ccc(-c2nnc(Nc3ccc(Sc4ccnc5[nH]ncc45)cc3)c3ccccc23)cc1` [compound 359], the EC50 was 0.013 µM.

Consider `COc1cnnc(Nc2ccc(Oc3ccnc4cc(OC)cnc34)cc2)c1` [compound 456], for which the EC50 was greater than 1.2 µM.

Consider `Cc1csc(-c2nnc(Nc3ccc(Sc4ccnc5ccc(OC(F)(F)F)cc45)cc3)c3ccccc23)c1` [compound 572], for which the EC50 came out at 0.055 µM.

In the case of `COc1cc2nncc(Oc3ccc(Nc4nnc(-c5ccccc5)c5ccccc45)cc3)c2cc1OC` [compound 254], the EC50 was greater than 1.2 µM.

In the case of `Clc1ccc(-c2nnc(Nc3ccc(Sc4ccnc5ccccc45)cc3)c3ccccc23)cc1` [compound 333], the EC50 was no less than 1.2 µM.

In the case of `Cc1ccc(-c2ccc3c(Oc4ccc(Nc5nnc(-c6ccccc6)c6ccccc56)cc4)ccnc3c2)o1` [compound 344], the EC50 was 0.044 µM.

For `N#Cc1ccc2c(Oc3ccc(Nc4nnc(-c5ccc(Cl)c(C#N)c5)c5ccccc45)cc3)ccnc2c1` [compound 231], the EC50 was 0.067 µM.

As to `Clc1ccc(-c2nnc(Nc3ccc(Oc4ccnc5cccnc45)cc3)c3ccccc23)cc1` [compound 448], the EC50 is 0.016 µM.

For the compound `COCCNc1nnc(Nc2ccc(Sc3ccnc4cc(OC)cnc34)cc2)c2ccccc12` [compound 533], the EC50 is 0.062 µM.

Take `COc1cnc2c(Sc3ccc(Nc4nnc(SC)c5ccccc45)cc3)ccnc2c1` [compound 514]: the EC50 was determined as 0.02 µM.

Regarding `Cc1csc(-c2nnc(Nc3ccc(Sc4ccnc5ccsc45)cc3)c3ccccc23)c1` [compound 366], the EC50 turned out to be 0.002 µM.

`Cc1ccc(-c2nnc(Nc3ccc(Sc4ccnc5cccnc45)cc3)c3ccccc23)cn1` [compound 553]: the EC50 was found to be 0.001 µM.

With `COc1cnc2c(Sc3ccc(Nc4nnc(-c5ccc(C)c(N)c5)c5ccccc45)cc3)ccnc2c1` [compound 477], the EC50 is 0.001 µM.

Turning to `COc1cnc2c(Oc3ccc(Nc4nnc(-c5ccc(Cl)c(C)c5)c5ccccc45)cc3)ccnc2c1` [compound 236], the EC50 was determined as 0.011 µM.

As to `Cc1csc(-c2nnc(Nc3ccc(Sc4ccnc5ccc(=O)[nH]c45)cc3)c3ccccc23)c1` [compound 589], the EC50 came out at 0.007 µM.

On to `Cc1csc(-c2nnc(Nc3ccc(Oc4ccnc5ccncc45)cc3)c3ccccc23)c1` [compound 429], for which the EC50 amounted to 0.034 µM.

For the compound `N#Cc1ccc(-c2nnc(Nc3ccc(Oc4ccnc5cc(C#N)ccc45)cc3)c3ccccc23)cc1` [compound 217], the EC50 was 0.369 µM.

For `COc1cnc2c(Oc3ccc(Nc4nnc(N5CCN(S(C)(=O)=O)CC5)c5ccccc45)cc3)ccnc2c1` [compound 607], the EC50 was determined as 0.482 µM.

In the case of `N#Cc1cc2nccc(Sc3ccc(Nc4nnc(-c5ccccc5)c5ccccc45)cc3)c2s1` [compound 458], the EC50 was found to be 0.148 µM.

For `COc1cnc2c(Oc3ccc(Nc4nnc(C5CC5)c5ccccc45)cc3)ccnc2c1` [compound 543], the EC50 was determined as 0.281 µM.

As to `c1cnc2c(Sc3ccc(Nc4nnc(-c5ccc6c(c5)OCO6)c5ccccc45)cc3)ccnc2c1` [compound 443], the EC50 was found to be 0.007 µM.

Turning to `FC(F)(F)Oc1ccc2c(Oc3ccc(Nc4nnc(-c5ccccc5)c5ccccc45)cc3)ccnc2c1` [compound 496], the EC50 is 0.397 µM.

With `c1ccc(-c2nnc(Nc3ccc(Oc4ncnc5[nH]ccc45)cc3)c3ccccc23)cc1` [compound 273], the EC50 is greater than 1.2 µM.

As to `COc1cc2nncc(Oc3ccc(Nc4nnc(-c5ccc(Cl)cc5)c5ccccc45)cc3)c2cc1OC` [compound 282], the EC50 was no less than 1.2 µM.

In the case of `COc1cnc2c(Oc3ccc(Nc4nnc(-c5ccc([S+](C)[O-])cc5)c5ccccc45)cc3)ccnc2c1` (stereo not shown) [compound 262], the EC50 is greater than 1.2 µM.

In the case of `COc1cc2c(Oc3ccc(Nc4nnc(-c5ccccc5)c5ccccc45)cc3)ccnc2cc1OCc1ccccc1` [compound 326], the EC50 is 0.06 µM.

Turning to `COc1cnc2c(Sc3ccc(Nc4nnc(N5CCC(C(F)(F)F)CC5)c5ccccc45)cc3)ccnc2c1` [compound 523], the EC50 turned out to be 0.006 µM.

As for `COc1cnc2c(Oc3ccc(Nc4nnc(-c5ccc6c(c5)OCCO6)c5ccccc45)cc3)ccnc2c1` [compound 166], the EC50 was determined as 0.087 µM.

For `COc1ccc2nccc(Sc3ccc(Nc4nnc(-c5ccc(Cl)cc5)c5ccccc45)cc3)c2n1` [compound 348], the EC50 came out at 0.012 µM.

As for `COc1ccc2nccc(Sc3ccc(Nc4nnc(-c5ccc(Cl)cc5)c5ccccc45)cc3)c2c1` [compound 315, 4-(4-chlorophenyl)-N-(4-(6-methoxyquinolin-4-ylthio)phenyl)phthalazin-1-amine], the EC50 was determined as 0.014 µM.

In the case of `COc1cnc2c(Oc3ccc(Nc4nnc(-c5ccc(S(C)(=O)=O)cc5)c5ccccc45)cc3)ccnc2c1` [compound 263], the EC50 turned out to be 0.138 µM.

Turning to `COc1cnc2c(Oc3ccc(Nc4nnc(-c5ccc(Cl)c(OCCS(C)(=O)=O)c5)c5ccccc45)cc3)ccnc2c1` [Example 394, 4-(4-Chloro-3-(2-(methylsulfonyl)ethoxy)phenyl)-N-(4-(7-methoxy-1,5-naphthyridin-4-yloxy)phenyl)phthalazin-1-amine], the EC50 came out at 0.045 µM.

On to `Fc1cc(F)c2c(Sc3ccc(Nc4nnc(-c5ccccc5)c5ccccc45)cc3)ccnc2c1` [compound 311], for which the EC50 came to 0.055 µM.

In the case of `Clc1ccc(-c2nnc(Nc3ccc(Oc4ncnc5ccsc45)cc3)c3ccccc23)cc1` [compound 591], the EC50 turned out to be 0.115 µM.

Consider `Clc1cccc(-c2nnc(Nc3ccc(Sc4ccnc5ccsc45)cc3)c3ccccc23)c1` [compound 518], for which the EC50 came out at 0.016 µM.

Consider `COc1cnc2c(Oc3ccc(Nc4nnc(N5CC[C@@H]6CCCC[C@H]6C5)c5ccccc45)cc3)ccnc2c1` [compound 587], for which the EC50 came to 0.14 µM.

For the compound `Cc1csc(-c2nnc(Nc3ccc(Sc4ccnc5cc(C(=O)N6CCOCC6)sc45)cc3)c3ccccc23)c1` [compound 312], the EC50 is 0.032 µM.

For the compound `COCCn1ccc2nccc(Sc3ccc(Nc4nnc(-c5ccc(Cl)cc5)c5ccccc45)cc3)c21` [compound 469], the EC50 worked out at 0.003 µM.

Turning to `COc1cnc2c(Sc3ccc(Nc4nnc(N5CCC(Cl)CC5)c5ccccc45)cc3)ccnc2c1` [compound 527], the EC50 is 0.004 µM.

Still in this assay, the particulars now being: Homo sapiens, HeLa, HeLa cells, average, read-out: 24h_4NPloidy EC50_IP (uM Avg).
As for `COc1ccc2c(C(O)c3ccc(Nc4nnc(-c5ccc(Cl)cc5)c5ccccc45)cc3)ccnc2c1` (stereo not shown) [compound 614], the EC50 was found to be 0.053 µM.
